Read-outs that look alike come from different tables or passages of the source. A value given as a limit tells only on which side of the number the result lay.

The target of data set [1] is T1, CDK4 (Homo sapiens, UniProt P11802+Q16531). As to the kind of experiment: CDK4 percentage degradation in Calu-1 cells (Table 6). The settings on record: 16 hours. Also noted: Cells that express cyclin D1-3 and CDK4/6 proteins were treated with heterobifunctional compounds; endogenous in cells; host or cells: Calu-1. The data set is classed as cell-based. A digest of the protocol: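 Calu-1 cells exposed to heterobifunctional compounds at 40 nM or 200 nM for 16 h. Cyclin D1 and CDK4 levels measured by Western blot of RIPA lysates (BCA-normalised loading), bands quantified by densitometry and expressed as percentage degradation.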

Data set [2] relates to MCF7 cells. As to the kind of experiment: Anti-proliferation (viability) of MCF7 cells (Table 7, FIG. 2B). The class given is cell-based. The settings on record: Homo sapiens, MCF7, MCF7 cells, 3-6 days, 10-point serial dilution; read-out: GI IC50 in MCF-7.
The subject of data set [3] is T47D palbo-resistant cells. In words: Cell viability in T47D palbociclib-resistant model (FIG. 4). The class given is cell-based. Particulars: 10-point serial dilution, 6 days. The procedure:
T47D cells were cultured long-term to resistance in the presence of 1 μM Palbociclib. Palbo resistance was determined by CellTiter-Lumi cell viability assay. T47D parental or palbo-resistant cells were treated with palbociclib, or heterobifunctional compounds CPD-10 or CPD-39 following a 10-point serial dilution for 6 days.
(§1) Calu-1, T47D, MCF7, HCC1428 and other cells were cultured at 37° C. with 5% CO2 in RPMI 1640 or DMEM medium supplemented with 10% fetal bovine serum. Cells were authenticated using the short tandem repeat (STR) assays. Mycoplasma test results were negative. For palbo-resistant cell model, T47D cells were cultured long-term to resistance in the presence of 1 μM Palbociclib. Cells were deemed resistant when growing in the presence of Palbo at the same rate as parental cells.
Cells were seeded at a density of 2,000-5,000 cells per well in 96-well assay plates and treated with test compounds following a 10-point serial dilution for 3-6 days. Cell viability was determined using the CellTiter-Lumi assay kit according to the manufacturer's instructions. The dose-response curves were determined and IC50 values were calculated using the GraphPad Prism software following a nonlinear regression (least squares fit) method. Data presented was mean±standard deviation (SD)unless otherwise indicated.

A short description of data set [4]: Mouse pharmacokinetics (FIG. 5). The data set is classed as in vivo, male Swiss Albino mice. Particulars: plasma, po, mice, 1 mg/kg i.v. and 10 mg/kg p.o., over 12 hours. The procedure:
A single dose of CPD-39 via 1 mg/kg intravenous (i.v.) injection or 10 mg/kg oral (p.o.) gavage was evaluated in mice. Plasma concentration of CPD-39 reported at each time points post dosing (5 min, 15 min, 30 min, 1 h, 2 h, 4 h, and 8 h via i.v.; 15 min, 30 min, 1 h, 2 h, 4 h, 6 h, 8 h, and 12 h via p.o.) represents the mean value derived from 3 experimental animals.
Standard PK studies were conducted using male Swiss Albino mice by Sai Life Sciences. A single dose of test compound via intravenous (i.v.) injection or oral (p.o.) gavage was evaluated in fed mice. Plasma concentration of test compound reported at each time points represents the mean value derived from 3 experimental animals. Error bars represent +SD.

The subject of data set [5] is T47D palbo-resistant cells. As to the kind of experiment: CellTiter-Lumi cell viability assay, T47D palbo-resistant cells, 6 days (FIG. 4). The data set is classed as cell-based. Particulars: Homo sapiens, 144 h. The protocol:
(§2) Furthermore, we developed one ER^+ breast cancer T47D model with acquired resistance after long period of treatment with 1 μM palbociclib (over IC90). Cells were deemed resistant when growing in the presence of palbo at the same rate as parental cells. Palbo resistance was determined by CellTiter-Lumi cell viability assay (FIG. 4, IC50>10,000 nM).

In data set [6] the test system is T47D parental cells. As to the kind of experiment: CellTiter-Lumi cell viability assay, T47D parental cells, 6 days (FIG. 4). The data set is classed as cell-based. The settings on record: Homo sapiens, 144 h. The protocol: as §2
Data set [7] deals with Calu-1 cells. As to the kind of experiment: Anti-proliferation (viability) of NSCLC Calu-1 cells, 3 days (Table 7, FIG. 2B). The data set is classed as cell-based. Particulars: Homo sapiens, 72 h; Calu-1 cells, 3 days, 10-point serial dilution; read-out: GI IC50 in Calu-1. A digest of the protocol:
(§3)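 Cells were exposed to heterobifunctional compounds across a 10-point serial dilution, for 3 days with Calu-1 and 6 days with T47D. A negative control was included that keeps the DDB1 ligand and linker but carries a modified warhead that impairs CDK4 binding.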

Data set [8] in a line: Pharmacokinetics in mice, single dose i.v. injection or oral gavage (FIG. 5). Particulars: mouse, plasma. The data set is classed as in vivo. The protocol: To investigate the pharmacokinetics of heterobifunctional compounds, exemplified by CPD-39, a single dose of CPD-39 via 1 mg/kg intravenous (i.v.) injection or 10 mg/kg was evaluated in mice. Plasma concentration reported at each time points post dosing represents the mean value derived from 3 experimental animals.

The test system of data set [9] is T47D cells. As to the kind of experiment: Anti-proliferation (viability) of ER+ breast cancer T47D cells, 6 days (Table 7, FIG. 2B). Particulars: Homo sapiens, 144 h; T47D cells, 6 days, 10-point serial dilution; read-out: GI IC50 in T47D. The data set is classed as cell-based. A digest of the protocol:
as §3

Data set [10] has as its system T47D cells. In words: Annexin V apoptosis flow cytometry, T47D (FIG. 3A). The settings on record: doses approximating IC50 and IC90, 6 days. The data set is classed as cell-based. The protocol:
(§4) T47D cells were treated with DMSO, palbociclib, heterobifunctional compound CPD-10 for 6 days at doses approximating IC50 and IC90 concentrations as indicated (FIG. 3A). HCC1428 cells were treated with DMSO, palbociclib, heterobifunctional compound CPD-10, or its negative control compound CPD-143 for 6 days at doses approximating IC90 concentrations as indicated (FIG. 3B). Cells were harvested by trypsinization, staining was carried out using the Annexin V Apoptosis Detection Kit.
(§5) Assays were performed on the CytoFLEX Cytometer (Beckman Coulter), and data were analyzed using CytExpert software. For cell death and apoptosis analysis, cells were harvested by trypsinization, staining was carried out using the Annexin V Apoptosis Detection Kit (BD Biosciences). Briefly, cells were resuspended in 1× binding buffer and incubated with fluorochrome-conjugated Annexin V and 7-AAD for 15 min in darkness at room temperature.

Data set [11] has as its system HCC1428 cells. In words: Flow cytometric analysis of Annexin V/7-AAD stained HCC1428 cells (apoptosis), 6 days (FIG. 3B). The data set is classed as cell-based. The settings on record: HCC1428; 1 μM; 6 days. The procedure: as §4, with “IC50and” for “IC50 and”, “Kit. The percentages of early apoptotic (Annexin V^+7-AAD^−, lower right quadrant), late apoptotic (Annexin V^+7-AAD^+, upper right quadrant) and necrotic cells (Annexin V^−7-AAD^+, upper left quadrant) are indicated on dot plots.” for “Kit.”
On the technique in general: A flow cytometer gives signals particle by particle.

Data set [12] deals with CCND3. As to the kind of experiment: Immunoblotting of CCND3 protein level in Calu-1 and MCF7 cells (FIG. 1A-1B). The class given is cell-based. Particulars: Calu-1 cells, 4 hours. The procedure:
(§6) Calu-1 cells were treated with heterobifunctional compound CPD-10, or CDK4/6 inhibitor palbociclib at indicated concentrations for 4 hours (FIG. 1A). MCF7 cells were deprived of serum for 2 hours followed by treatment with CPD-10, or palbociclib at indicated concentrations for 24 hours (FIG. 1B).
(§7) Antibody and Reagent Anti-cyclin D1 (29785), anti-cyclin D2 (3741S), anti-cyclin D3 (2936S), anti-CDK4 (127905), anti-CDK6 (3136S), anti-phospho-Rb (8516S), anti-FoxM1 (54365), anti-cyclinA2(4656S), anti-vinculin antibody (187995) antibodies were purchased from Cell Signaling Technology. HRP-conjugated anti-α-tubulin antibody and anti-α-GAPDH antibody were purchased from GNI. Media, and other cell culture reagents were purchased from Thermo Fisher Scientific. CellTiter-Glo Luminescent Assay kit was purchased from Promega.
as §1
(§8) Cultured cells were washed with cold PBS once and lysed in cold RIPA buffer supplemented with protease inhibitors and phosphatase inhibitors (Beyotime Biotechnology). The solutions were then incubated at 4 ? for 30 min with gentle agitation to fully lysed cells. Cell lysates were centrifuged at 13,000 rpm for 10 min at 4 ? and pellets were discarded. Total protein concentrations in the lysates were determined following BCA assays (Beyotime Biotechnology). Cell lysates were mixed with Laemmli loading buffer and heated at 99° C. for 5 min. Proteins were resolved on SDS-PAGE and visualized using Western ECL Substrate kits on a ChemiDoc MP Imaging system (Bio-Rad). Protein bands were quantitated using the Image Lab software provided by Bio-Rad.
(Immunoblotting shows a protein as a band on a membrane.)

The test system of data set [13] is CCND1, CCND3, and CDK4 in MCF7 cells. As to the kind of experiment: Immunoblot of CCND1, CCND3 and CDK4 protein levels in MCF7 cells under serum starvation (FIG. 1B, 24 hours). The data set is classed as cell-based. The settings on record: MCF7 cells, CDK4/6 inhibitor. The protocol:
(§9) Specific exemplary heterobifunctional compounds were characterized in Calu-1, MCF7, T47D and other cells. Cells that express cyclin D1-3 and CDK4/6 proteins were treated with heterobifunctional compounds disclosed herein at indicated concentrations. MCF7 cells were deprived of serum for 2 hours followed by the treatment with heterobifunctional compounds. Cells were collected, lysed and subject to immunoblotting using an antibody specific to CCND1, CCND2, CCND3, CDK4, or FoxM1, cyclin A2, or phosphorylated Rb (S807/811) proteins. Tubulin or GAPDH was used as the loading control. DMSO treatment was used as the negative control.

Data set [14] deals with HCC1428 cells. In words: Annexin V apoptosis flow cytometry, HCC1428 (FIG. 3B). The settings on record: HCC1428, dose approximating IC90, 6 days. The data set is classed as cell-based. The procedure: as §4, §5
Data set [15] relates to CCND1, CCND3, and CDK4 in Calu-1 cells. In words: Immunoblot of CCND1, CCND3 and CDK4 protein levels in Calu-1 cells (FIG. 1A, 4 hours). Particulars: Calu-1 cells, CDK4/6 inhibitor. The data set is classed as cell-based. The procedure: as §9
The target in data set [16] is T1, CDK4. As to the kind of experiment: Immunoblotting of CDK4 protein level in Calu-1 and MCF7 cells (FIG. 1A-1B). Also on record: Cells that express cyclin D1-3 and CDK4/6 proteins were treated with heterobifunctional compounds; endogenous in cells; host or cells: Calu-1. The data set is classed as cell-based. Particulars: Calu-1 cells, 4 hours. The procedure:
as §6, §7, §1, §8

Data set [17] has as its system T47D cells. As to the kind of experiment: Flow cytometric analysis of Annexin V/7-AAD stained T47D cells (apoptosis), 6 days (FIG. 3A). The data set is classed as cell-based. The protocol: as §4, with “IC50and” for “IC50 and”, “Kit. The percentages of early apoptotic (Annexin V^+7-AAD^−, lower right quadrant), late apoptotic (Annexin V^+7-AAD^+, upper right quadrant) and necrotic cells (Annexin V^−7-AAD^+, upper left quadrant) are indicated on dot plots.” for “Kit.”

Data set [18] relates to CCND1. In words: Immunoblotting of CCND1 protein level in Calu-1 and MCF7 cells (FIG. 1A-1B). The data set is classed as cell-based. The protocol:
as §6, §7, §1, §8

T1 sequence (P11802 2-303 limits assumed): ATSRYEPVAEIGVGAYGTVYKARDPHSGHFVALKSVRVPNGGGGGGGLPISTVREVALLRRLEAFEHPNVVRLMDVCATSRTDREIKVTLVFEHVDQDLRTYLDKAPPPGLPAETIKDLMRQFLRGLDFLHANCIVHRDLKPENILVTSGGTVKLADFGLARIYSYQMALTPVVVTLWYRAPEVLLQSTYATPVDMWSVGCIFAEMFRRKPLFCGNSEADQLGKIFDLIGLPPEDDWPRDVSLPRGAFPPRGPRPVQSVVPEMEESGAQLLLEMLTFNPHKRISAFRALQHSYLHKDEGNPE
T1 sequence (P24385 whole entry partner): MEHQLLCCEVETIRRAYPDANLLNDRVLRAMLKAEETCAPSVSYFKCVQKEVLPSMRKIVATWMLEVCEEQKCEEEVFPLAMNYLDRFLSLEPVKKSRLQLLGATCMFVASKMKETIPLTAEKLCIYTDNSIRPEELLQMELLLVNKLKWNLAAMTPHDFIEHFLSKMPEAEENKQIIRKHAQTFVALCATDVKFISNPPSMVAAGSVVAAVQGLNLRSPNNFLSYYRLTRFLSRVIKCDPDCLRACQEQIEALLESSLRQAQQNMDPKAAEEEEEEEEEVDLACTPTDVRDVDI
T1 sequence (Q16531 2-1140 limits assumed): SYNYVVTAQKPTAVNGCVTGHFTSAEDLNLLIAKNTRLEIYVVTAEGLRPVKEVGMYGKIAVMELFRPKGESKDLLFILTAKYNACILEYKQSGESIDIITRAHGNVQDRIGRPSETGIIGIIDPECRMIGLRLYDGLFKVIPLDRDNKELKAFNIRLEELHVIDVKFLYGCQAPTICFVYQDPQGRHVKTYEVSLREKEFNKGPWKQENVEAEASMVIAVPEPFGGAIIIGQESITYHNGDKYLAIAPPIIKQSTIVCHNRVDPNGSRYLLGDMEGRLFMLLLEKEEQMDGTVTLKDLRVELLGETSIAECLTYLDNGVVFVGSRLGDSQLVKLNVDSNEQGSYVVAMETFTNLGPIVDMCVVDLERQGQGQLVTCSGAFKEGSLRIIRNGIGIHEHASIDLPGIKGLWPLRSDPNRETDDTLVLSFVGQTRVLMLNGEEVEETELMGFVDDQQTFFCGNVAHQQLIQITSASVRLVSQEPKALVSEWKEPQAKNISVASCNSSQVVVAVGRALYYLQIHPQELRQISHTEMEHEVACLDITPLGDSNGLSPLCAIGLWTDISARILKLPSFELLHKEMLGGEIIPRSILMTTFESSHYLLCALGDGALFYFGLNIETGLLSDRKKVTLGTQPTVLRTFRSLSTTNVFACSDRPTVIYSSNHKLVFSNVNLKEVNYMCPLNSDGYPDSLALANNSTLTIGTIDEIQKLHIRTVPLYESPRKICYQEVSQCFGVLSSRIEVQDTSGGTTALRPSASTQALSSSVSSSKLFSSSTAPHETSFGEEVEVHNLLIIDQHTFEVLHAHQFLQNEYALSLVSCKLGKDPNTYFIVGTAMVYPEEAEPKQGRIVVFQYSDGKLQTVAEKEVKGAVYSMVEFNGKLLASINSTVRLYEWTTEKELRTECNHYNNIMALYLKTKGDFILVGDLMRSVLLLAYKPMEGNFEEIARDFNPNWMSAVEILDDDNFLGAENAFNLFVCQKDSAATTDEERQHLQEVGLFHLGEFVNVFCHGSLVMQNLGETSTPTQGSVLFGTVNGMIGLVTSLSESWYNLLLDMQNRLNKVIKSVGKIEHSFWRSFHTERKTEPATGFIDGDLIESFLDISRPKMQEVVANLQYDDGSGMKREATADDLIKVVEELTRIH

As a reminder, the inhibition is the drop in the measured response relative to a control, in per cent. Read a high inhibition as strong suppression. The term IC50 denotes the concentration at which inhibition is half-maximal. In general, bioavailability refers to the share of a dose that reaches the circulation, judged against a reference dose that is usually intravenous. The low end stands for poor availability, the high end for good availability. In data set [1] (40 nM), `CNc1ccc(C(=O)Nc2ccc(N(C)C)nn2)c(NC2CC3(CC(NC(=O)CN4CCN(c5ccc(Nc6ncc7c(C)c(C(C)=O)c(=O)n(C8CCCC8)c7n6)nc5)CC4)C3)C2)n1` (centres unmarked) [CPD-39, 2-((6-(2-(4-(6-((6-Acetyl-8-cyclopentyl-5-methyl-7-oxo-7,8-dihydropyrido[2,3-d]pyrimidin-2-yl)amino)pyridin-3-yl)piperazin-1-yl)acetamido)spiro[3.3]heptan-2-yl)amino)-N-(6-(dimethylamino)pyridazin-3-yl)-6-(methylamino)nicotinamide] displayed an inhibition at 0.04 µM of 50 to 80%. Moreover, the inhibition at 0.2 µM in [1] (200 nM) is 50 to 80%. Also, the IC50 was more than 100 nM in data set [2]; 82.5 nM in data set [5]; 32.6 nM in data set [6]; not above 10 nM in data set [7]; not above 50 nM in data set [9]. The “cell viability in palbociclib-resistant model” value in data set [3] is reported as “remained effective in T47D palbo-resistant model”. In [4], this molecule displayed a bioavailability at 12 h of approximately 15%. In addition, the AUC(0-inf) in [8] (iv, mice, 1 mg/kg i.v., read-out: AUCinf, i.v.) is 1030 ng·h/mL; in [8] (po, fed mice, 10 mg/kg p.o., read-out: AUCinf, p.o.), 1580 ng·h/mL. The clearance in [8] (iv, mice, 1 mg/kg i.v., read-out: CL, i.v.) was determined as 16.3 mL/min/kg. Besides, the Vd in data set [8] (iv, mice, 1 mg/kg i.v., read-out: VSS, i.v.) came to 1.6 L/kg. Moreover, in data set [8] (fed mice, 10 mg/kg oral vs 1 mg/kg i.v.), the bioavailability was more than 15%.
In the case of `CC(=O)c1c(C)c2cnc(Nc3ccc(N4CCNCC4)cn3)nc2n(C2CCCC2)c1=O` [Palbociclib, palbociclib, reference compound], the cell apoptosis entry in data set [10] and in data set [14] was “much less effect on cell apoptosis” in each case. Also, the “Annexin V+ population” value in [11] amounted to 17.7%; in [17] (100 nM) it was 15.9%; in data set [17] (1 μM), 26.1%. Also, the CCND3 protein level entry in data set [12] is listed as “did not significantly change the levels of these proteins in Calu-1 cells”. Besides, the “effect on CCND1 protein levels (result in words)” value in [13] was “accumulation of CCND1 protein levels”. The “effect on CCND and CDK4 protein levels (result in words)” value in data set [15] was “no significant effect”. The IC50 in data set [5] is more than 10000 nM. Moreover, the CDK4 protein level entry in [16] was “did not significantly change the levels of these proteins in Calu-1 cells”. Besides, the CCND1 protein level result in [18] (Calu-1 cells, 4 hours) is listed as “did not significantly change the levels of these proteins in Calu-1 cells”; in data set [18] (MCF7 cells, serum deprived 2 hours, treated 24 hours), “accumulated CCND1 protein levels in MCF7 cells”.

(Values after patent publication US20260297081A1, “COMPOUNDS AND METHODS OF TREATING CANCERS” (Cullgen Inc., priority 2023, published 2026).)
